# Data reported in the supplement of paper PMC10307832.
# Columns and labels:
# Assay in all cases: relative viability (nuclei count vs DMSO), 5 days (fraction); higher = more cells survive
# [1] = compound: CC(=O)Nc1cccc(-n2c(=O)n(C3CC3)c(=O)c3c(Nc4ccc(I)cc4F)n(C)c(=O)c(C)c32)c1 [Trametinib] + C[C@@H](Oc1cc(-c2cnn(C3CCNCC3)c2)cnc1N)c1c(Cl)ccc(F)c1Cl [Crizotinib] (partner 1 µM)
# Procedure, shortened: (§1)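 A single step with final 0.05% Triton X-100, 1% formaldehyde and 1 ug/ml Hoechst fixed the cells and stained nuclei 5 days after treatment. Lung cancer cell lines in 1536-well plates had been treated by pin tool the day after seeding with one drug alone or a fixed anchor-drug dose plus five library-drug doses (not always all listed) in √10 steps, and nuclei were counted on 4× images. Relative viability is the ratio of nuclei in treated wells to nuclei in vehicle wells, taken as the median of duplicate plates.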
# [2] = compound: CN1C=C(C2=CC=CC=C21)/C=C\3/C4=C(C=CC=N4)NC3=O + Nc1nc2[nH]cc(CCc3ccc(C(=O)N[C@@H](CCC(=O)O)C(=O)O)cc3)c2c(=O)[nH]1 [Pemetrexed] (partner 0.2 µM)
# Procedure, shortened: as §1
# [3] = compound: CN1C=C(C2=CC=CC=C21)/C=C\3/C4=C(C=CC=N4)NC3=O + C[C@@H](Oc1cc(-c2cnn(C3CCNCC3)c2)cnc1N)c1c(Cl)ccc(F)c1Cl [Crizotinib] (partner 1 µM)
# Procedure, shortened: as §1
# [4] = compound: CC(=O)Nc1cccc(-n2c(=O)n(C3CC3)c(=O)c3c(Nc4ccc(I)cc4F)n(C)c(=O)c(C)c32)c1 [Trametinib] + C[C@]1(O)C[C@@H](c2nc(-c3ccc4ccc(-c5ccccc5)nc4c3)c3c(N)nccn32)C1 [Linsitinib] (partner 1 µM)
# Procedure, shortened: as §1
Cell Line,relative viability ([1]; first compound 0.0025 µM),relative viability ([1]; first compound 0.007906 µM),relative viability ([1]; first compound 0.025 µM),relative viability ([1]; first compound 0.07906 µM),relative viability ([1]; first compound 0.25 µM),relative viability ([2]; first compound 0.02 µM),relative viability ([2]; first compound 0.06325 µM),relative viability ([2]; first compound 0.2 µM),relative viability ([2]; first compound 0.6325 µM),relative viability ([2]; first compound 2 µM),relative viability ([3]; first compound 0.02 µM),relative viability ([3]; first compound 0.06325 µM),relative viability ([3]; first compound 0.2 µM),relative viability ([3]; first compound 0.6325 µM),relative viability ([3]; first compound 2 µM),relative viability ([4]; first compound 0.0025 µM),relative viability ([4]; first compound 0.007906 µM),relative viability ([4]; first compound 0.025 µM),relative viability ([4]; first compound 0.07906 µM),relative viability ([4]; first compound 0.25 µM)
LXF-289,0.738,0.711,0.608,0.531,0.353,0.925,0.913,0.928,0.881,0.974,0.775,0.785,0.881,0.849,0.895,0.878,0.818,0.698,0.628,0.563
NCI-H1792,0.92,0.949,0.738,0.553,0.488,1.06,0.813,0.496,0.74,0.825,0.759,0.999,0.87,–,0.898,0.489,0.39,0.363,0.234,0.164
LU99A,0.554,0.489,0.473,0.368,0.214,0.156,0.182,0.176,0.173,0.186,0.522,0.479,0.607,0.568,0.603,0.593,0.522,0.441,0.47,0.291
SW 1573,0.781,0.603,0.601,0.518,0.462,0.785,0.806,0.788,0.93,0.906,0.727,0.832,0.816,0.712,0.874,0.847,0.602,0.654,0.487,0.449
COR-L23,0.66,0.682,0.665,0.425,0.337,0.197,0.189,0.209,0.18,0.19,0.631,0.576,0.752,0.622,0.671,0.874,0.851,0.827,0.639,0.306
NCI-H1755,0.807,0.789,0.706,0.772,0.691,0.351,0.365,0.427,0.423,0.373,0.855,0.802,0.827,0.836,0.919,0.847,0.82,0.764,0.847,0.801
LOU-NH91,0.722,0.667,0.714,0.636,0.501,0.368,0.387,0.365,0.348,0.372,0.74,0.649,0.672,0.709,0.724,0.864,0.801,0.771,0.735,0.526
EMC-BAC-2,0.755,0.782,0.765,0.732,0.482,0.407,0.438,0.442,0.465,0.421,0.644,0.714,0.668,0.757,0.832,0.744,0.754,0.634,0.674,0.537
NCI-H2023,0.597,0.543,0.475,0.442,0.247,0.274,0.171,–,0.25,0.2,0.647,0.543,0.606,0.62,0.694,0.549,0.47,0.45,0.424,0.217
EKVX,0.779,0.778,0.765,0.564,0.4,0.371,–,–,0.354,0.352,0.835,0.927,0.913,0.792,0.876,0.875,0.757,0.767,0.632,0.282
NCI-H2085,0.793,0.69,0.698,0.688,0.63,0.789,0.927,0.836,0.975,0.967,0.738,0.892,0.752,0.868,0.803,0.812,0.688,0.607,0.728,0.737
NCI-H3122,0.238,0.228,0.221,0.199,0.209,0.185,0.196,0.203,0.194,0.267,0.226,0.231,0.275,0.29,0.28,0.938,0.734,0.429,0.329,0.295
HCC-827,0.931,0.946,0.889,0.859,0.532,0.227,0.28,–,0.247,0.258,0.835,0.916,–,0.96,0.978,0.958,0.893,0.944,0.886,0.753
HARA,0.9,0.907,0.807,0.638,0.336,0.24,0.24,–,0.263,0.216,0.975,0.958,0.933,1.02,1.09,0.757,0.736,0.673,0.535,0.237
NCI-H441,0.757,0.691,0.608,0.448,0.294,0.275,0.241,0.264,0.285,0.251,0.972,0.706,0.72,0.89,0.767,0.553,0.471,0.293,0.253,0.21
SK-MES-1,0.997,0.991,0.792,0.543,0.334,0.846,0.856,0.687,0.954,0.852,0.972,0.84,1.03,0.976,0.967,1.02,0.938,0.779,0.505,0.338

Cell Line,relative viability ([1]; first compound 0.0025 µM),relative viability ([1]; first compound 0.007906 µM),relative viability ([1]; first compound 0.025 µM),relative viability ([1]; first compound 0.07906 µM),relative viability ([1]; first compound 0.25 µM),relative viability ([2]; first compound 0.02 µM),relative viability ([2]; first compound 0.06325 µM),relative viability ([2]; first compound 0.2 µM),relative viability ([2]; first compound 0.6325 µM),relative viability ([2]; first compound 2 µM),relative viability ([3]; first compound 0.02 µM),relative viability ([3]; first compound 0.06325 µM),relative viability ([3]; first compound 0.2 µM),relative viability ([3]; first compound 0.6325 µM),relative viability ([3]; first compound 2 µM),relative viability ([4]; first compound 0.0025 µM),relative viability ([4]; first compound 0.007906 µM),relative viability ([4]; first compound 0.025 µM),relative viability ([4]; first compound 0.07906 µM),relative viability ([4]; first compound 0.25 µM)
HCC-15,0.658,0.53,0.415,0.259,0.187,0.228,0.211,0.223,0.217,0.211,0.805,0.795,0.887,0.897,0.955,0.694,0.447,0.294,0.239,0.186
EPLC-272H,0.825,0.672,0.538,0.599,0.377,0.3,0.274,0.298,–,0.369,0.924,0.96,–,0.909,1.06,1.23,0.89,0.471,0.659,0.489
NCI-H2009,1.08,0.586,0.336,0.301,0.266,1.02,0.947,1.06,1.02,1.02,0.958,0.97,1.05,1.15,1.14,0.916,0.717,0.483,0.472,0.334
NCI-H661,1.12,1.19,1.03,1.04,1.08,1.02,0.902,0.89,0.985,0.972,1.07,1.01,1.11,1.04,1.14,0.537,0.499,0.567,0.392,0.403
NCI-H520,0.752,0.681,0.815,0.733,0.557,0.67,0.53,0.698,0.672,0.732,0.569,0.828,0.885,0.773,0.807,0.947,1.02,1.02,0.905,0.664
NCI-H1563,0.944,0.747,0.817,0.785,0.623,0.827,0.694,0.703,0.665,0.752,0.871,0.897,0.736,0.893,0.971,1.22,1.08,1.1,1.12,0.808
NCI-H2405,0.864,0.836,0.685,0.561,0.521,1,0.955,0.828,1.09,1.01,0.769,0.832,–,0.829,0.821,0.577,0.486,0.382,0.362,0.349
LCLC-97TM1,0.482,0.573,0.271,0.281,0.147,–,0.177,0.18,0.21,0.186,0.232,–,–,0.331,0.419,0.185,0.195,0.147,0.133,0.119
NCI-H2228,0.33,0.398,0.438,0.254,0.247,0.337,0.305,0.349,0.372,0.365,0.386,0.489,–,0.373,0.425,0.582,0.764,0.646,0.472,0.396
LK-2,0.283,0.217,0.226,0.299,0.241,0.192,0.241,0.199,0.309,0.297,–,0.205,0.202,0.243,0.219,0.553,0.44,0.604,0.304,0.469
PC-3 [JPC-3],1.02,0.968,0.919,0.737,0.601,0.846,1.05,1.07,0.8,0.79,0.878,0.949,0.954,0.96,0.966,0.98,0.854,0.854,0.797,0.624
NCI-H596,0.8,0.824,0.757,0.721,0.597,0.494,0.494,0.527,0.456,0.531,0.932,1.01,0.936,0.89,0.891,1.04,0.851,0.769,0.774,0.76
NCI-H460,0.857,0.552,0.476,0.289,0.0283,0.0583,0.0649,0.0603,0.0702,0.0616,0.994,0.99,0.932,–,0.902,0.656,0.265,0.153,0.0822,0.0212
NCI-H647,0.961,1.04,0.746,0.671,0.572,0.122,0.173,0.153,0.167,0.175,0.967,0.923,1.04,1.03,0.906,1.07,0.803,0.835,0.933,0.58
NCI-H838,0.786,0.689,–,0.572,0.411,0.249,0.235,0.234,0.247,0.246,0.615,0.657,0.761,0.707,0.833,0.912,0.867,–,0.754,0.528
PC-14,0.994,0.909,0.815,0.686,0.55,0.141,0.137,0.145,0.143,0.118,0.91,0.791,1,0.856,0.958,0.996,0.89,0.787,0.59,0.434
